Converted amounts (≈) assume the structure as drawn.
How the values were obtained:
E. coli clinical strains = assay: Antibacterial susceptibility studies (MIC50 and MIC90) with clinical strains, CLSI guidelines; type: cell-based
[1] = Stability of IV formulation at room temperature; type: physicochemical; settings: IV formulation in 10% L-ascorbic acid, pH~4
Protocol: (§1) Procedure: Weighed appropriate amount of the Example 15 to be tested and dissolved in 1 ml of the 10% ascorbic acid solution. (Vortex for a few seconds if the compound doesn't dissolve instantly). Sonicated the compound solution at room temperature for 5 minutes using a bath sonicator to obtain a visually clear solution. The above prepared solution was pH adjusted to pH˜4 with 1N NaOH solution (w/v) with sonication (final Formulation pH˜4).

[2] = IV formulation solubility; type: physicochemical; settings: 10% L-ascorbic acid in MilliQ water (IV formulation), aqueous with cosolvent or surfactant or cyclodextrin, IV formulation: 10% L-Ascorbic acid, 1N NaOH for pH adjustment, read-out: Solubility in 10% L-ascorbic acid in fresh MilliQ water(v/v), Final
Protocol: as §1, with “The above prepared solution was pH adjusted to pH˜4 with 1N NaOH solution (w/v) with sonication (final Formulation pH˜4).” left out

[3] = tested on: P. aeruginosa clinical strains; assay: Antibacterial susceptibility studies (MIC50 and MIC90) with clinical strains, CLSI guidelines; type: cell-based
[4] = tested on: Acinetobacter baumannii ATCC 19606; assay: Minimum Inhibitory Concentration (MIC) in LB media; type: cell-based; settings: Acinetobacter baumannii, ATCC19606;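 note: twofold compound dilutions from DMSO stocks in LB broth microplates, overnight incubation at 37 °C, growth read by absorbance at 600 nm, with DMSO and sterility controls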
Protocol: Bacterial cultures that are stored as glycerol stocks at −80° C. are sub cultured on LB agar plates to obtain isolated colonies. A single colony of each strain is cultured in LB broth. […] Test compounds are dissolved in dimethyl sulfoxide (DMSO) to a stock concentration of 4 mg/ml. A twofold dilution series of this DMSO stock is prepared in a 96 well V bottom microtitre plate from rows A to H. A 3 μL volume of these dilutions are transferred to a 96-well flat bottom microtitre assay plate. Controls to monitor the effects of DMSO and media sterility are included. Each well is inoculated with 150 μL of the above diluted culture. The plates are incubated at 37° C. overnight in a humidified incubator. The following morning, the plates are read using a Spectrophotometer at 600 nm wavelength.

E. coli DNA gyrase = E. coli DNA gyrase (Escherichia coli, UniProt P0AES4+P0AES6); assay: biochemical; settings: supercoiling assay
E. coli topoisomerase IV = E. coli topoisomerase IV (Escherichia coli, UniProt P0AFI2+P20083); assay: biochemical; settings: decatenation assay; read-out: E. coli Topo IV IC50
[5] = target: T1, human ether a go-go related gene (hERG) K+ channel (Homo sapiens, UniProt Q12809); assay: hERG inhibition assay, QPatch HTX automated electrophysiology; type: cell-based; settings: CHO cell line stably expressing hERG, whole-cell patch clamp, maximum test concentration 300 μM
T1 construct: Chinese Hamster Ovary cell line stably expressing the full-length hERG potassium channel; expressed in transfected cells
Protocol: The compounds were tested for inhibition of the human ether a go-go related gene (hERG) K+ channel using QPatch HTX automated electrophysiology.
Compounds were solubilised to 100 mM in DMSO before dilution in HBPS to 300 μM.
Electrophysiological recordings were made from a Chinese Hamster Ovary cell line stably expressing the full-length hERG potassium channel. Single cell ionic currents were measured in whole-cell patch clamp configuration at room temperature (21-23° C.) using the QPatch HTX platform (Sophion). Intracellular solution contained (mM): 120 KF, 20 KCl, 10 EGTA, 10 HEPES and was buffered to pH 7.3. […] Cells were clamped at a holding potential of −80 mV. […] This sweep was repeated 10 times at 10 s intervals. hERG currents were measured from the tail step and referenced to the holding current. Compounds were then incubated for 2 minutes prior to a second measurement of ion channel current using an identical pulse train.

[6] = In vivo pharmacokinetic studies in rats, 1 hr intravenous infusion; settings: for AUC(0-t) / AUC(0-inf) / Cmax / Tmax / clearance / half-life / Vd: male, Sprague-Dawley, rat, iv; for Vd: male SD rats, 1 h IV infusion
[7] = tested on: Pseudomonas aeruginosa ATCC 27853; assay: Minimum Inhibitory Concentration (MIC) in LB media; type: cell-based; settings: Pseudomonas aeruginosa, ATCC27853, read-out: Minimum Inhibitory Concentration P. aeruginosa ATCC 27853
Summary of the method: (§2)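 Broth microdilution in LB using cultures grown to OD600 0.8 to 1; compounds tested as twofold dilutions from a 4 mg/ml DMSO stock. Plates incubated overnight at 37° C., growth read by absorbance at 600 nm to give MIC.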

[8] = tested on: Klebsiella pneumoniae ATCC 13883; assay: Minimum Inhibitory Concentration (MIC) in LB media; type: cell-based; settings: Klebsiella pneumoniae, ATCC13883, read-out: Minimum Inhibitory Concentration K. pneumoniae ATCC 13883
Summary of the method: as §2

[9] = tested on: Escherichia coli ATCC 25922; assay: Minimum Inhibitory Concentration (MIC) in LB media; type: cell-based; settings: Escherichia coli, ATCC25922, read-out: Minimum Inhibitory Concentration E. coli ATCC 25922
Summary of the method: as §2

[10] = tested on: Staphylococcus aureus ATCC 29213; assay: Minimum Inhibitory Concentration (MIC) in LB media; type: cell-based; settings: Staphylococcus aureus, ATCC29213, read-out: Minimum Inhibitory Concentration S. aureus ATCC 29213
Summary of the method: as §2

Sequence of E. coli topoisomerase IV (P20083 whole entry): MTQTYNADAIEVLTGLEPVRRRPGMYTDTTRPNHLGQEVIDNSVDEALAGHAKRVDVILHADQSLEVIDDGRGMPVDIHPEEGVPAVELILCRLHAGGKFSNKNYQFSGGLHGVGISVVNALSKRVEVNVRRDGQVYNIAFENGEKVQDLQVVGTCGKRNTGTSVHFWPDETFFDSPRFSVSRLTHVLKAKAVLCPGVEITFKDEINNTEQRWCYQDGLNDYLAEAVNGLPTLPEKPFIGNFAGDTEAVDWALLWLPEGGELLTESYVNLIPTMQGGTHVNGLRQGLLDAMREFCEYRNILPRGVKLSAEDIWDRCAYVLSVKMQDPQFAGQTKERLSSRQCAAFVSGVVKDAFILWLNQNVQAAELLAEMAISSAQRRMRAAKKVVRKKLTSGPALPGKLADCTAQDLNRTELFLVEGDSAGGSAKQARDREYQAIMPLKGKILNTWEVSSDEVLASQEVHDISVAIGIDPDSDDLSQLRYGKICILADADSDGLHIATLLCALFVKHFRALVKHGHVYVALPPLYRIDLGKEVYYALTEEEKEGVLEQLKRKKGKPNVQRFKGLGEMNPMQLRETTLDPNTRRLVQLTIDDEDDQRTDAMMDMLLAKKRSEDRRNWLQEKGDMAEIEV
Sequence of E. coli topoisomerase IV (P0AFI2 whole entry): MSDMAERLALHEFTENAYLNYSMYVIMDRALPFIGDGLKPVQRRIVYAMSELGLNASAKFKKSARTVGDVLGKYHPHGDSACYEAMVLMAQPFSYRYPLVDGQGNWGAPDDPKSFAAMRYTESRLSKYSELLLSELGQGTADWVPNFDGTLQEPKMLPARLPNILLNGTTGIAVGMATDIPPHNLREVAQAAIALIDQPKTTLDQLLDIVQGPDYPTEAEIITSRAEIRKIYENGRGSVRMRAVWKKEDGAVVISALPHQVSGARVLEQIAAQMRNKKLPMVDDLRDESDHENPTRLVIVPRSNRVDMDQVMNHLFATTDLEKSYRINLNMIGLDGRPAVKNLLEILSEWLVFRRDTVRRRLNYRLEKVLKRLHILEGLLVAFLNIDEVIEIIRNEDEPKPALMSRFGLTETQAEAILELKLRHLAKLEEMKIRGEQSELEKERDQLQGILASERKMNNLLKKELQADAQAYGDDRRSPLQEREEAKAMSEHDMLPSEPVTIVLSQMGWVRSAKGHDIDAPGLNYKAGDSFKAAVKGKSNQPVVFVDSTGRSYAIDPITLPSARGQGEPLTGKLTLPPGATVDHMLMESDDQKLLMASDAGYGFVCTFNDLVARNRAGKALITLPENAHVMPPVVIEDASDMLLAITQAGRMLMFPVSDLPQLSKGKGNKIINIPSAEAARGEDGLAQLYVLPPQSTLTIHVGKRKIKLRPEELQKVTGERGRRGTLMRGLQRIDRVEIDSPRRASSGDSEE
T1 sequence (Q12809 whole entry): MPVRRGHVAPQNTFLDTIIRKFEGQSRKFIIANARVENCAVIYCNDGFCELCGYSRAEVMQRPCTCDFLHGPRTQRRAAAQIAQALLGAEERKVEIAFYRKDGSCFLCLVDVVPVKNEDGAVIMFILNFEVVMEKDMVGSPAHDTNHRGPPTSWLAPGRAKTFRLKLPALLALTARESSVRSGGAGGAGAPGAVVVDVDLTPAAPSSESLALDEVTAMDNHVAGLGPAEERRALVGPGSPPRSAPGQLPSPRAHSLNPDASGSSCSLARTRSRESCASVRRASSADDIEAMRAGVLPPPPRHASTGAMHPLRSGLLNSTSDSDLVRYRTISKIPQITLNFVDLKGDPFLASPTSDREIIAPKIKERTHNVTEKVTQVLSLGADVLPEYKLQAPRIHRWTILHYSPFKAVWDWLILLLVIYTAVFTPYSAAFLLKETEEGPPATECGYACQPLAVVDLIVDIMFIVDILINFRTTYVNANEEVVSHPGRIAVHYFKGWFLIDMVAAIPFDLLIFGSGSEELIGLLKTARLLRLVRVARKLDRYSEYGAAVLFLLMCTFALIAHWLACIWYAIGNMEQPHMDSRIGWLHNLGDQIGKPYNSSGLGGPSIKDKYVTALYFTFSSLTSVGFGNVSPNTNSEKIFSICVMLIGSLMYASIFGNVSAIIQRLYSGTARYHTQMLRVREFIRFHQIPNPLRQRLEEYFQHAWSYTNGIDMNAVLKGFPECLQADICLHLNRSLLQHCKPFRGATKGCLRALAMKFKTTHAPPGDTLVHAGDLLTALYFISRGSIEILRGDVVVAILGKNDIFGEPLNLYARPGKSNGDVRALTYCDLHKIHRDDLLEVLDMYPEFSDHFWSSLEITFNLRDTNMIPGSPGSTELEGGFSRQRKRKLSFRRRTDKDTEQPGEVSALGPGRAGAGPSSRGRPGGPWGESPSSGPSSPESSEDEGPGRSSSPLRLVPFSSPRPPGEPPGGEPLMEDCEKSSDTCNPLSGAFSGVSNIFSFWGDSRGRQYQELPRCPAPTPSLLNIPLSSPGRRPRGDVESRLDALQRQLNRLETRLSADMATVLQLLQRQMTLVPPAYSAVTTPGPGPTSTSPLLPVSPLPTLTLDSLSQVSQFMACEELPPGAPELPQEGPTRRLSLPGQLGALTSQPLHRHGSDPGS
Sequence of E. coli DNA gyrase (P0AES4 whole entry, one chain of several): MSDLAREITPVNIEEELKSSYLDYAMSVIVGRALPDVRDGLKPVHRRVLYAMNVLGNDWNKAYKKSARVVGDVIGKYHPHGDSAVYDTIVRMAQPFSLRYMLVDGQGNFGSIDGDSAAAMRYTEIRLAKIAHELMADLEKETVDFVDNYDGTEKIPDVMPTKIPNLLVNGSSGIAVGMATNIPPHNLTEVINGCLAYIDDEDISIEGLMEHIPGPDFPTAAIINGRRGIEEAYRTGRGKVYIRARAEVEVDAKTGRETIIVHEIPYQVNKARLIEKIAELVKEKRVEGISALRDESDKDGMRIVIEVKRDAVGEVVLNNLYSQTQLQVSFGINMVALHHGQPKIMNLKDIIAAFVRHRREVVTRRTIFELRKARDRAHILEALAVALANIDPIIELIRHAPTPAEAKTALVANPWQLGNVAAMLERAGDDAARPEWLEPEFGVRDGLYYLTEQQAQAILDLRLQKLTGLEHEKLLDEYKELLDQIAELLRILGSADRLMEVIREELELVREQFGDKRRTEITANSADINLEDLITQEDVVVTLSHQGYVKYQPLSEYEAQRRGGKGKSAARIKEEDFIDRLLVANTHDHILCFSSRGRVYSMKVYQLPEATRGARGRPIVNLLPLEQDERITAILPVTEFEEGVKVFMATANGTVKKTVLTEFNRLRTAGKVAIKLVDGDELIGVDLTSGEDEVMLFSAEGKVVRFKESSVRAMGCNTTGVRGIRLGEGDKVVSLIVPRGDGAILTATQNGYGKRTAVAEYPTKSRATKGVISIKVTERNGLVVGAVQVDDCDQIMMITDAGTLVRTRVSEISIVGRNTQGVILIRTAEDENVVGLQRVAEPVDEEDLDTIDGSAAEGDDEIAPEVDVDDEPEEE

Structure (SMILES): Cn1c(=O)ccc2ccc(F)c(CCNC[C@H]3CN(c4cnc5c(n4)NC(=O)CO5)C(=O)O3)c21 [Example 15, (S)-6-(5-(((2-(7-fluoro-1-methyl-2-oxo-1,2-dihydroquinolin-8-yl)ethyl)amino)methyl)-2-oxooxazolidin-3-yl)-2H-pyrazino[2,3-b][1,4]oxazin-3(4H)-one]
- MIC ATCC25922 (E. coli clinical strains; E. coli reference strain ATCC25922, no unit in this line (MIC50/MIC90 lines: μg/ml)): 0.06 µg/mL (≈ 0.128 µM)
- MIC50 (E. coli clinical strains; Escherichia coli): 0.06 µg/mL (≈ 0.128 µM)
- MIC90 (E. coli clinical strains; Escherichia coli): 0.25 µg/mL (≈ 0.534 µM)
- Minimum (E. coli clinical strains; lowest MIC among E. coli clinical strains (201 strains; Example 15: 176), no unit in this line): 0.03
- IV formulation stable at room temperature [1]: more than 24 hours
- solubility at 5 min [2]: 25 mg/mL (≈ 53400 µM)
- MIC ATCC27853 ([3]; P. aeruginosa reference strain ATCC27853, no unit in this line): 0.25 µg/mL (≈ 0.534 µM)
- MIC50 ([3]; Pseudomonas aeruginosa): 0.5 µg/mL (≈ 1.07 µM)
- MIC90 ([3]; Pseudomonas aeruginosa): 1 µg/mL (≈ 2.13 µM)
- Minimum ([3]; lowest MIC among P. aeruginosa clinical strains (215 strains; Example 15: 176), no unit in this line): 0.03
- MIC [4]: 0.06 µg/mL (≈ 0.128 µM)
- IC50 (E. coli DNA gyrase): 0.0046 µM
- IC50 (E. coli topoisomerase IV): 0.01 µM
- IC50 [5]: 131 µM
- clearance (in words) ([6]; SD rats, 1 hr IV infusion): moderate
- half life (in words) ([6]; SD rats, 1 hr IV infusion): short
- volume of distribution (in words) ([6]; SD rats, 1 hr IV infusion): low
- AUC and Cmax versus dose (in words) ([6]; SD rats, IV infusion at 5, 10, 30 & 100 mg/kg): Dose proportional increase
- AUC(0-t) ([6]; in vivo): 104000 ± 7300 ng·h/mL
- AUC(0-inf) ([6]; in vivo, 30 mg/kg): 14700 ± 200 ng·h/mL
- AUC(0-t) ([6]; in vivo, 30 mg/kg): 14700 ± 200 ng·h/mL
- Cmax ([6]; in vivo, 30 mg/kg): 15200 ± 2200 ng/mL
- Tmax ([6]; in vivo, 30 mg/kg): 1 h
- clearance ([6]; in vivo, 30 mg/kg): 34 mL/min/kg
- half-life ([6]; in vivo, 30 mg/kg): 0.96 ± 0.02 h
- Vd ([6]; in vivo, 30 mg/kg, Vd): 2.83 ± 0.09 L/kg
- Vd ([6]; in vivo, 30 mg/kg, Vss, 30 mg/kg): 0.84 ± 0.06 L/kg
- AUC(0-inf) ([6]; in vivo, 100 mg/kg): 73700 ± 15300 ng·h/mL
- AUC(0-t) ([6]; in vivo, 100 mg/kg): 73700 ± 15300 ng·h/mL
- Cmax ([6]; in vivo, 100 mg/kg): 62600 ± 6700 ng/mL
- Tmax ([6]; in vivo, 100 mg/kg): 1 h
- clearance ([6]; in vivo, 100 mg/kg): 23.3 mL/min/kg
- half-life ([6]; in vivo, 100 mg/kg): 4.93 ± 0.5 h
- Vd ([6]; in vivo, 100 mg/kg, Vd): 9.86 ± 1.68 L/kg
- Vd ([6]; in vivo, 100 mg/kg, Vss, 100 mg/kg): 0.9 ± 0.05 L/kg
- AUC(0-inf) ([6]; in vivo, 150 mg/kg): 104000 ± 7300 ng·h/mL
- Cmax ([6]; in vivo, 150 mg/kg): 101000 ± 146000 ng/mL
- Tmax ([6]; in vivo, 150 mg/kg): 1 h
- clearance ([6]; in vivo, 150 mg/kg): 24.2 mL/min/kg
- half-life ([6]; in vivo, 150 mg/kg): 6.17 ± 0.42 h
- Vd ([6]; in vivo, 150 mg/kg, Vd): 12.9 ± 1 L/kg
- Vd ([6]; in vivo, 150 mg/kg, Vss, 150 mg/kg): 0.86 ± 0.04 L/kg
- AUC(0-inf) ([6]; plasma, 5 mg/kg): 1700 ± 50 ng·h/mL
- AUC(0-t) ([6]; plasma, 5 mg/kg): 1700 ± 50 ng·h/mL
- Cmax ([6]; plasma, 5 mg/kg): 2400 ± 60 ng/mL
- Tmax ([6]; plasma, 5 mg/kg): 0.77 ± 0.01 h
- clearance ([6]; plasma, 5 mg/kg): 48.7 mL/min/kg
- half-life ([6]; plasma, 5 mg/kg): 0.53 ± 0.03 h
- Vd ([6]; plasma, 5 mg/kg, Vd): 2.21 ± 0.012 L/kg
- Vd ([6]; plasma, 5 mg/kg, Vss, 5 mg/kg): 0.91 ± 0.05 L/kg
- MIC [7]: 0.25 µg/mL (≈ 0.534 µM)
- MIC [8]: 0.03 µg/mL (≈ 0.064 µM)
- MIC [9]: 0.03 µg/mL (≈ 0.064 µM)
- MIC [10]: ≤ 0.015 µg/mL
